We go through 15 compounds from the supplement of paper PMC5579334.

Assay [1] concerns HS-PSS. As to the kind of experiment: drug sensitivity score (DSS, CellTiter-Glo viability, 72 h) (DSS (dimensionless)); higher = more sensitive; extreme values may be limits of the assay. In outline: (§1)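 MPNST cell lines and primary human Schwann cells (750–1000 cells per well) went into 384-well plates preprinted with each compound at five concentrations in 10-fold steps. Plates were incubated 72 h at 37 °C, 5% CO2. Viability was read as CellTiter-Glo ATP luminescence, scaled between vehicle and positive-control wells, with duplicates averaged where present. Percent inhibition is at the top concentration; drug sensitivity score and relative IC50 (censored at top concentration) come from four-parameter logistic fits.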
In general terms: ATP-based viability assays read luminescence as a measure of living cells.

For assay [2], the system named is HS-Sch-2. Described as above. The method, boiled down:
as §1

The test system of assay [3] is YST-1. The description is as above. The method, boiled down: as §1
Assay [4] relates to HS-PSS. As to the kind of experiment: % inhibition of CellTiter-Glo viability at highest tested concentration (72 h), relative to DMSO and benzethonium chloride controls; higher = more inhibition. In outline:
as §1

The test system of assay [5] is HS-Sch-2. The description is as above. The method, boiled down: as §1
For assay [6], the system named is YST-1. The description is as above. The method, boiled down: as §1
The test system of assay [7] is HS-PSS. Put plainly: drug sensitivity score (DSS, CellTox-Green cytotoxicity, 72 h) (DSS (dimensionless)); higher = more cytotoxic; extreme values may be limits of the assay. In outline:
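MPNST cell lines and primary human Schwann cells were incubated 72 h at 37 °C in 384-well plates holding five 10-fold compound dilutions. CellTox-Green was added before seeding at a final 1:1000 dilution and reported fluorescence from DNA released by disrupted cells. Signals were scaled to vehicle and positive-control wells, and cultures failing plate quality control were dropped. Drug sensitivity score and relative IC50 come from four-parameter logistic fits, with IC50 censored at the top concentration.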

A word on the % inhibition: it is the relative decrease from the control value, in per cent. `NC(=O)Nc1sc(-c2ccc(F)cc2)cc1C(N)=O` [TPCA-1] (max concentration tested 25000 nM): the drug sensitivity score in the assay with HS-PSS [1] amounted to 3.59; with HS-Sch-2 [2], 1.36; with YST-1 [3] it was 3.91; in the assay on HS-PSS [7], 0. Moreover, the “% inhibition” value amounted to 41% in the assay on HS-PSS [4], 17.7% in the assay on HS-Sch-2 [5] and 46.1% in the assay on YST-1 [6].
Regarding `O=C(Nc1cc(Cl)cc2c1[nH]c1cnccc12)c1cccnc1` [PS-1145] (max concentration tested 25000 nM), the drug sensitivity score was found to be 0.49 in the assay with HS-PSS [1], 0 with HS-Sch-2 [2], 3.62 with YST-1 [3] and 0 with HS-PSS [7]. In addition, the “% inhibition” value in the assay with HS-PSS [4] amounted to 13.7%; in the assay with HS-Sch-2 [5], 5.78%; in the assay on YST-1 [6], 16.9%.
For the compound `NC1(C(=O)N[C@@H](CCO)c2ccc(Cl)cc2)CCN(c2ncnc3[nH]ccc23)CC1` [AZD-5363] (max concentration tested 10000 nM), the drug sensitivity score in the assay on HS-PSS [1] is 0.45; with HS-Sch-2 [2], 3.33; with YST-1 [3], 4.35; in the assay with HS-PSS [7] it was 0. Also, the “% inhibition” value with HS-PSS [4] was found to be 20.3%; in the assay with HS-Sch-2 [5], 66.5%; in the assay on YST-1 [6] it was 56.9%.
For the compound `CCN(CC)C(=S)SSC(=S)N(CC)CC` [Disulfiram] (max concentration tested 100000 nM), the drug sensitivity score was found to be 30.6 with HS-PSS [1], 27 in the assay on HS-Sch-2 [2], 30.7 in the assay with YST-1 [3] and 8.67 in the assay on HS-PSS [7]. The “% inhibition” value in the assay with HS-PSS [4], with HS-Sch-2 [5] and in the assay with YST-1 [6] was 101% each time.
Regarding `CC1CCC(n2c3cnccc3c3cnc(Nc4ccc5c(n4)CCN(C(=O)CO)C5)nc32)CC1` (stereo not given) [AMG-925] (max concentration tested 1000 nM), the drug sensitivity score turned out to be 0 in the assay with HS-PSS [1], 0.03 in the assay on HS-Sch-2 [2], 0.02 with YST-1 [3] and 0 with HS-PSS [7]. Besides, the “% inhibition” value amounted to 9.07% in the assay with HS-PSS [4], 12.2% with HS-Sch-2 [5] and 6.95% with YST-1 [6].
As for `CCn1c(-c2nonc2N)nc2c(C#CC(C)(C)O)ncc(OC[C@H]3CCCNC3)c21` (max concentration tested 10000 nM), the drug sensitivity score came out at 0 with HS-PSS [1], 3.35 with HS-Sch-2 [2], 0 in the assay with YST-1 [3] and 0 with HS-PSS [7]. For the same compound, the “% inhibition” value was 3.9% in the assay on HS-PSS [4], 39% in the assay with HS-Sch-2 [5] and -24.9% in the assay on YST-1 [6].
`CNC(=O)c1ccccc1Nc1cc(Nc2ccc(N3CCOCC3)cc2OC)ncc1C(F)(F)F` [VS-4718] (max concentration tested 10000 nM): the drug sensitivity score in the assay with HS-PSS [1] was 3.23; with HS-Sch-2 [2], 3.18; in the assay on YST-1 [3], 4.99; in the assay on HS-PSS [7], 0.03. The “% inhibition” value worked out at 68.6% with HS-PSS [4], 50.4% in the assay on HS-Sch-2 [5] and 45.2% in the assay with YST-1 [6].
Turning to `O=c1ncn2nc(Sc3ccc(F)cc3F)ccc2c1-c1c(Cl)cccc1Cl` [VX 745] (max concentration tested 10000 nM), the drug sensitivity score in the assay on HS-PSS [1] was determined as 0.47; with HS-Sch-2 [2], 0.7; with YST-1 [3], 3.73; with HS-PSS [7], 0. The results for the “% inhibition” value in the assay on HS-PSS [4], with HS-Sch-2 [5] and in the assay with YST-1 [6] were 21.1%, 22.6% and 31.1%, respectively.
Turning to `O=C(Nc1ccc(OC(F)(F)F)cc1)c1sccc1NCc1ccnc2ccccc12` [OSI-930] (max concentration tested 2500 nM), the drug sensitivity score turned out to be 2.5 in the assay with HS-PSS [1], 0.3 in the assay on HS-Sch-2 [2], 0 in the assay with YST-1 [3] and 0 in the assay with HS-PSS [7]. The figures for the “% inhibition” value in the assay with HS-PSS [4], in the assay with HS-Sch-2 [5] and in the assay on YST-1 [6] were 23.2%, 17.9% and 1.07%, respectively.
As to `COc1cc2nccc(Oc3ccc(NC(=O)NC4CC4)c(Cl)c3)c2cc1C(N)=O` [Lenvatinib] (max concentration tested 2500 nM), the drug sensitivity score with HS-PSS [1] was found to be 0; in the assay with HS-Sch-2 [2] it was 0.06; in the assay on YST-1 [3] it was 0.83; with HS-PSS [7] it was 0. Further, the “% inhibition” value in the assay on HS-PSS [4] is 5.51%; with HS-Sch-2 [5], 15%; with YST-1 [6] it was 18.1%.
Turning to `CC(C)(O)CC(=O)NCCn1ccc2ncnc(Nc3ccc(Oc4cccc(C(F)(F)F)c4)c(Cl)c3)c21` [TAK-285] (max concentration tested 2500 nM), the drug sensitivity score was 0.89 in the assay on HS-PSS [1], 0 with HS-Sch-2 [2], 0 in the assay with YST-1 [3] and 0 in the assay with HS-PSS [7]. Further, the “% inhibition” value was -2.72% in the assay on HS-PSS [4], -0.95% in the assay with HS-Sch-2 [5] and 6.24% in the assay on YST-1 [6].
On to `O=C(O)c1ccc(Nc2ncc3c(n2)-c2ccc(Cl)cc2C(c2c(F)cccc2F)=NC3)cc1` [MLN-8054] (max concentration tested 10000 nM), for which the drug sensitivity score in the assay with HS-PSS [1] is 3.57; in the assay with HS-Sch-2 [2], 6.25; in the assay on YST-1 [3] it was 6.64; in the assay with HS-PSS [7] it was 0. Besides, the “% inhibition” value is 36.4% in the assay with HS-PSS [4], 60.3% in the assay with HS-Sch-2 [5] and 46.6% with YST-1 [6].
For the compound `CCc1cc2c(cc1N1CCC(N3CCOCC3)CC1)C(C)(C)c1[nH]c3cc(C#N)ccc3c1C2=O` [Alectinib] (max concentration tested 1000 nM), the drug sensitivity score with HS-PSS [1] turned out to be 7.01; with HS-Sch-2 [2], 0; with YST-1 [3], 0.28; in the assay with HS-PSS [7], 0. Also, the “% inhibition” value is 42.8% with HS-PSS [4], 2.24% in the assay on HS-Sch-2 [5] and 17.5% with YST-1 [6].
With `Cc1csc(-c2nnc(Nc3ccc(Oc4ncccc4-c4ccnc(N)n4)cc3)c3ccccc23)c1` [AMG-900] (max concentration tested 1000 nM), the drug sensitivity score in the assay on HS-PSS [1] amounted to 0.8; in the assay with HS-Sch-2 [2], 1.27; with YST-1 [3], 9.1; with HS-PSS [7], 0. The entries for the “% inhibition” value in the assay with HS-PSS [4], in the assay on HS-Sch-2 [5] and in the assay on YST-1 [6] were 19.6%, 30% and 29.8%, respectively.
As to `CCS(=O)(=O)N1CCN(c2ccc(Nc3ncc(C(N)=O)c(NC4CC4)n3)cc2)CC1` [Cerdulatinib] (max concentration tested 10000 nM), the drug sensitivity score with HS-PSS [1] was 3.47; in the assay on HS-Sch-2 [2], 4.87; in the assay on YST-1 [3] it was 0; in the assay with HS-PSS [7] it was 0. For the same compound, the “% inhibition” value in the assay on HS-PSS [4] was 40.3%; in the assay on HS-Sch-2 [5], 58.9%; with YST-1 [6], -4.68%.
